We go through 3 compounds from PubChem BioAssay (NCI).

Values joined by “and” are separate entries in the source; they are usually repeats but may differ in a detail not shown here. Equal values may be shown once.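 Tested at 5 concentrations; 48 h exposure; 96-well plates; endpoints linearly interpolated, else capped at highest concentration. Here, GI50 denotes the concentration required for 50% inhibition of growth. TGI denotes the concentration required for complete inhibition of growth.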

Test systems include DMS 114 small cell lung; DMS 273 small cell lung; HOP-18 NSCLC; KM20L2 colon; LXFL 529 NSCLC; M19-MEL melanoma; MDA-N; SN12K1 renal; P388 leukemia; P388/ADR leukemia; SNB-78 CNS; RXF-631 renal.
What all share (test): NCI tumour cell line growth inhibition, 48 h

Turning to `CCCCCC/C=C1\CCC(CN(C)C)C1=O` (stereo not drawn), the TGI in the test with DMS 114 small cell lung is 8.99 µM; in the test with DMS 273 small cell lung, 11.4 µM; in the test on HOP-18 NSCLC it was 28.8 µM; in the test on KM20L2 colon it was 23.3 µM; in the test with LXFL 529 NSCLC, 3.8 µM; in the test with M19-MEL melanoma, 7.25 µM. Also, the TGI in the test with MDA-N was found to be 17.1 µM; in the test on SN12K1 renal it was 4.35 µM.
As to `Cn1sc2ccccc2c1=S`, the TGI with DMS 114 small cell lung amounted to 7.46 µM; with DMS 273 small cell lung, 17.6 µM; in the test with HOP-18 NSCLC it was 28.4 µM; in the test with KM20L2 colon it was 28.8 µM; in the test with LXFL 529 NSCLC, 27.1 µM; with M19-MEL melanoma, 16.2 µM. The TGI in the test on P388 leukemia stood at 1.67 µM; in the test with P388/ADR leukemia, 2.86 µM; in the test with SN12K1 renal it was 7.41 µM; in the test on SNB-78 CNS, 31 µM.
Consider `COC(C)(C)[C@H](O)C(O)CC(C)[C@@H]1CCC23CC12CCC1[C@@]2(C)CCC(OC(C)=O)C(C)(C)C2CC(OC2OC(COC(C)=O)C(O)C(O)C2O)[C@]13C` (stereo partly drawn), for which the GI50 is 3.62 µM in the test with DMS 114 small cell lung; 7.7 µM with DMS 273 small cell lung; 4.15 µM in the test on HOP-18 NSCLC; 2.63 µM in the test on KM20L2 colon; 6.23 µM with LXFL 529 NSCLC; 4.04 µM in the test with M19-MEL melanoma. For the same compound, the GI50 in the test on SNB-78 CNS was 14 µM. For the same compound, the TGI is 8.65 µM and 12.8 µM in the test with DMS 114 small cell lung; 10.2 µM and 23.4 µM in the test with DMS 273 small cell lung; 19.7 µM and 13.3 µM in the test on HOP-18 NSCLC; 2.12 µM and 7.94 µM with KM20L2 colon; 12.8 µM and 19.2 µM in the test with LXFL 529 NSCLC; 10.2 µM and 13.8 µM with M19-MEL melanoma. The TGI was 12.8 µM in the test with RXF-631 renal; 17.9 µM and 31.7 µM in the test with SNB-78 CNS.
